Experimental data: US7247734B2 (Vernalis (Cambridge) Limited, priority 2001, dated 2007)
pIC50: −log10 of the molar value.

How the values were obtained:
yeast HSP90 = biological target: T1, yeast HSP90 (Saccharomyces cerevisiae, UniProt P02829); assay: Malachite green HSP90 ATPase assay; format: biochemical; settings: activity range, ATPase assay; read-out: ATPase IC50
T1 construct: made in house; host or cells: E. coli
Text: Two methods have been developed to measure the intrinsic ATPase activity of HSP90, using yeast HSP90 as a model system. The first method utilises a regenerating coupled enzyme assay. The second assay, based on the use of malachite green for the measurement of inorganic phosphate, was designed for high throughput screening (HTS) to identify novel HSP90 inhibitor drug candidates.
Colorimetric assays for the determination of phosphate, based on the formation of a phosphomolybdate complex, can be carried out in a few steps with inexpensive reagents and are well suited to the automation required for high throughput screening (see, e.g., Cogan et al., 1999). Enzymes that release inorganic phosphate are assayed using the reaction of the cationic dye, malachite green, with the a complex formed by a reaction of the inorganic phosphate with molybdate to generate a blue-green colour with an absorbance maximum at 610 nm (see, e.g., Baykov et al., 1988; Harder et al., 1994; Maehama et al., 2000). The method has been used in both high throughput (see, e.g., Rumsfeld et al., 2000) and ultra-high throughput screening formats (see, e.g., Layery et al., 2001) for a variety of non-HSP90 ATPases. However, this method is complicated by the non-enzymatic hydrolysis of ATP in the presence of acidic malachite green reagent, causing an increase in colour (see, e.g., Chan et al., 1986; Henkel et al., 1988). This process is mediated by molybdate and can be overcome by the addition of sodium citrate immediately after the reagent (see, e.g., Lanzetta et al., 1979; Schirmer et al., 1998; Baginski et al., 1975). This modification has been adapted to the 96-well microtitre plate assay previously described for other ATPases (see, e.g., Lanzetta et al., 1979) to produce the following protocol for HSP90 ATPase, which is suitable for high throughput screening.
Chemicals are of the highest purity commercially available and all aqueous solutions are made up in AR water. Because of the need to minimise contamination with inorganic phosphate, precautions should be taken with solutions and apparatus used in the assays. Glassware and pH meters are rinsed with double distilled or deionised water before use and, wherever possible, plastic ware should be used. Gloves are worn for all procedures. • (1) Immulon 96-well (Thermo Labsystems, Basingstoke, UK) or Cliniplate 384-well flat-bottomed polystyrene multiwell plates (Thermo Labsystems). • (2) Assay buffer of (a) 100 mM Tris-HCl, pH 7.4, (b) 20 mM KCl, (c) 6 mM MgCl2. Stored at 4° C. • (3) 0.0812% (w/v) malachite green (M 9636, Sigma Aldrich Ltd., Poole, UK). Stored at room temperature. • (4) 2.32% (w/v) polyvinyl alcohol USP (P 1097, Sigma Aldrich Ltd, Poole, UK) in boiling water (see Comment 1), allowed to cool, and stored at room temperature. • (5) 5.72% (w/v) ammonium molybdate in 6 M hydrochloric acid. Stored at room temperature. • (6) 34% (w/v) sodium citrate. Stored at room temperature. • (7) ATP, disodium salt, special quality (519979, Boehringer Mannheim, Lewes, UK). Stored at 4° C. • (8) E. coli expressed yeast HSP90 protein, purified >95% (see, e.g., Panaretou et al., 1998) and stored at −80° C. as 10 μl aliquots containing 0.5 mg of protein. Method
The following protocol was used: • (1) On the day of use, prepare the malachite green reagent from the stock solutions. Mix (a) 2 parts of malachite green, (b) 1 part of polyvinyl alcohol, (c) 1 part of ammonium molybdate, and (d) 2 parts of water. Initially, the reagent is a dark brown colour, but after standing at room temperature for about 2 h, this becomes a golden yellow colour and is ready for use. • (2) For the high throughput screening assays, the test compounds are dissolved at 200 μM in 2.0% DMSO and contained in daughter plates derived from the chemical libraries. Transfer 5 μl of each sample from the daughter plate to each well of the assay plate using automated equipment (see Comment 3). This represents a final concentration in the well of 40 μM.

[1] = tested on: HCT116 human colon tumour cells; assay: 96 h growth inhibition assay (SRB), HCT116; format: cell-based; settings: Homo sapiens, HCT-116; HCT116, 96 h
Protocol: (§1) The growth inhibition assay employed was based on that described previously (Kelland et al., 1993). HCT116 and HT29 human colon tumour cells (American Tissue Culture Collection) were seeded into 96-well tissue culture plates (approximately 1600–2000 cells per well) and allowed to attach for 36 hours. Eight wells were treated with a single concentration from a range of compound concentrations and incubated for 96 hours. Cells were fixed using ice cold 10% trichloroacetic acid (TCA). Plates were then washed five times with water, air dried, and stained with 0.4% sulphorhodamine B (SRB) in 1% acetic acid for 10 minutes. The SRB stain was solubilised in 10 mM Tris-HCl and the absorbance measured at 540 nm using a Titertek Multiscan MCC/340 MKII plate reader (Flow Laboratories, IEC, Basingstoke, N.H.). The absorbance values correspond to total protein content and are used as a measure of cell growth.

[2] = tested on: HT29 human colon tumour cells; assay: 96 h growth inhibition assay (SRB), HT29; format: cell-based; settings: Homo sapiens, HT-29; HT29, 96 h
Protocol: as §1

HCT116 cells = assay: Cellular protein by BCA assay after compound exposure (ELISA plates); format: cell-based, human; settings: HCT116, 1 μM compound
Protocol: Incubate at 37° for 30 min. • (6) Wash plates twice in PBS using an automated washer (Wellwash 5000 ten plate stacker-washer or Wellwash Ascent single plate washer, Thermo Labsystems, Basingstoke, UK). • (7) Block the plates by addition of blocking solution (100 μl) and incubate for 30 min. • (8) Add 100 μl primary antibody diluted to 0.95 μg/ml in PBS to each well and incubate plate for 1.5 h. Wash plates once with DELFIA® wash solution. • (9) Add 100 μl Europium labelled anti-mouse IgG diluted in DELFIA® assay buffer to 75 ng/ml and incubate for 1 hour. Wash plates once with DELFIA® wash solution as before. • (10) Add 100 μl DELFIA® enhancement solution to each well. • (11) Measure the fluorescence (615 nm) in Victor 2 1420 multilabel counter (Perkin Elmer Life Sciences, Milton Keynes, UK) using time-resolved measurement mode. • (12) Wash plates once with PBS and measure protein concentration by the addition of 200 μl BCA reagent to each well, shake for 1–2 min and incubate for 30 mins at 37° C. Read absorption at 570 nm. • (13) Express ELISA results by normalising to protein in the well (Eu counts (cpm) divided by OD@ 570 nm). Compare the effect of HSP90 inhibitors on HSP70 expression with DMSO treated controls. Comments • (1) Cells plated into 96 well plates are incubated in a plastic box to reduce evaporation from the outside wells. In addition, ELISA incubation steps are carried out in a 37° C. laboratory incubator and in a moist environment e.g., plastic box lined with damp tissue paper. • (2) All additions to the microtitre plate can be achieved using a multichannel pipette or for larger numbers of plates an automated dispenser such as a Multidrop (Thermo Labsytems, Basingstoke, UK). • (3) For convenience, if the effects of compounds are being studied at several time points the ELISA can be carried out in batches, plates being stored (in a container) at 4° C. following the fixation step. In this case the plates are washed only once following fixation and again immediately before the first ELISA step (step 6 above). In addition all the plates can be stored for subsequent protein estimation. • (4) Reproducibility of both the measured Europium counts and the protein measurements was between 10–15% (CV). • (5) DELFIA® reagents (see, e.g., Hemmila and Webb, 1997) have been routinely used in cell-based ELISAs. This endpoint provides high sensitivity and the time-resolved measurements reduce interference from non-specific fluorescence. However, it is also possible to use a horse radish peroxidase second antibody conjugate and either a calorimetric (e.g., tetramethylbenzidine) or chemiluminescent reagent (e.g., ECL reagent (Amersham Pharmacia Biotech, Little Chalfont, Bucks, UK) for endpoint measurement. • (6) It is recommended that a blank consisting of second-antibody only (i.e., no first antibody) together with an appropriate first antibody control (e.g., isotype matched IgG) are included in assays during the process of optimising reagent concentrations. Growth Inhibition Assay
The effect of various compounds of the present invention on the expression of the molecular marker HSP70 was determined using the cell-based ELISA and a specific monoclonal antibody to HSP70 in HCT116 cells, as described above. Cellular protein following compound exposure was determined using BCA assay as described in the method.

HSP70 in HCT116 cells = assay: Cell-based ELISA for HSP70 expression; design: species or system human; settings: HCT116, 1 μM compound
Text: Cell-based ELISA methods (see, e.g., Stockwell et al., 1999; Versteeg et al., 2000) offer several advantages for evaluating the pharmacodynamic effects of novel mechanism-based inhibitors and may be the method of choice for comparing inhibitors that are identified during the iterative process of lead identification and optimisation. The technique can be used to rapidly rank the effectiveness of compounds as well as to investigate the molecular mechanisms of their action. The increased sample throughput possible with ELISA means that compounds can be simultaneously studied in multiple replicates at different doses and exposure times. […] The assays are carried out directly on cells grown and treated in microtitre plates, thereby removing the necessity for preparing cell lysates. ELISA techniques can in theory be applied to any cellular protein or post-translational modification for which an antibody is available and results are at least semi-quantitative.
Chemicals are of the highest purity commercially available. • (1) Human colon tumour cell lines (e.g., HCT116 and HT29 from American Tissue Culture Collection, ATCC) grown in Dulbecco's modified Eagle's medium (DMEM) (CSSD, Institute of Cancer Research, London, UK) supplemented with […] glucose, 10% foetal bovine serum (FBS), 200 mM L-glutamine, and 5 ml non-essential amino acids in a humidified atmosphere of 5% CO2 at 37° C. • (2) 96 well Falcon clear microtitre tissue culture plates (BD Labware, Hospital Management and Supplies, Ltd., Northampton, UK). • (3) DMSO diluted in dH2O (8%). • (4) HSP90 inhibitors at required concentration dissolved in DMSO. • (5) Fixing solution (0.25% glutaraldehyde, 3% paraformaldehyde and 0.25% Triton-X 100) (all from Sigma Aldrich Ltd, Poole, UK). • (6) Blocking solution (5% dried milk (Marvel) in PBS) prepared daily. • (7) Anti HSP70 monoclonal antibody (SPA 810, Bioquote, York, UK). • (8) DELFIA® wash buffer, enhancement solution, assay buffer and Europium labelled anti-mouse IgG (1244–1330) (PerkinElmer Life Sciences, Milton Keynes, UK). • (9) BCA protein assay reagents (Perbio Science UK Ltd., Chester, UK). Method
Incubate at 37° for 30 min. • (6) Wash plates twice in PBS using an automated washer (Wellwash 5000 ten plate stacker-washer or Wellwash Ascent single plate washer, Thermo Labsystems, Basingstoke, UK). • (7) Block the plates by addition of blocking solution (100 μl) and incubate for 30 min. • (8) Add 100 μl primary antibody diluted to 0.95 μg/ml in PBS to each well and incubate plate for 1.5 h. Wash plates once with DELFIA® wash solution. • (9) Add 100 μl Europium labelled anti-mouse IgG diluted in DELFIA® assay buffer to 75 ng/ml and incubate for 1 hour. Wash plates once with DELFIA® wash solution as before. • (10) Add 100 μl DELFIA® enhancement solution to each well. • (11) Measure the fluorescence (615 nm) in Victor 2 1420 multilabel counter (Perkin Elmer Life Sciences, Milton Keynes, UK) using time-resolved measurement mode. • (12) Wash plates once with PBS and measure protein concentration by the addition of 200 μl BCA reagent to each well, shake for 1–2 min and incubate for 30 mins at 37° C. Read absorption at 570 nm. • (13) Express ELISA results by normalising to protein in the well (Eu counts (cpm) divided by OD@ 570 nm). Compare the effect of HSP90 inhibitors on HSP70 expression with DMSO treated controls. Comments • (1) Cells plated into 96 well plates are incubated in a plastic box to reduce evaporation from the outside wells. […]

T1 sequence (P02829 whole entry, looked up): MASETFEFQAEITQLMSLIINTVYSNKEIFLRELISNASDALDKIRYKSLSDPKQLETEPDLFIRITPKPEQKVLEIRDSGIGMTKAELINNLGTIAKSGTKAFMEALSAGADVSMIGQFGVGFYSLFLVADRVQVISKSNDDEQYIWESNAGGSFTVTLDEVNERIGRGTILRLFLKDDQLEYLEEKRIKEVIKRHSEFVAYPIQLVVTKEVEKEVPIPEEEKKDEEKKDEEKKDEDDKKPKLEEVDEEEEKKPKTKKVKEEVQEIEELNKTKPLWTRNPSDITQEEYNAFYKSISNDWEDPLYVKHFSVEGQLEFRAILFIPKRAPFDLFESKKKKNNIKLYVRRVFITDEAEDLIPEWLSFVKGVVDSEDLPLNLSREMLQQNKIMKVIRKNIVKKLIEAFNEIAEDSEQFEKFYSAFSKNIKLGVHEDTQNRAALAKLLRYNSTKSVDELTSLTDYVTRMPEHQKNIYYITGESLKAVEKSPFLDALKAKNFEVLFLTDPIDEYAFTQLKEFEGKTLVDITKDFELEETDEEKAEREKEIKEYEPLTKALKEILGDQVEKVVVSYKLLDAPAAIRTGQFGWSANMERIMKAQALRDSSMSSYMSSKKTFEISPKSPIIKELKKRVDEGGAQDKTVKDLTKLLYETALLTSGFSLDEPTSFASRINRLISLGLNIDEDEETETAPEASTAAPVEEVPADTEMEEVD

| SMILES | pIC50 (yeast HSP90) | also measured |
| --- | --- | --- |
| Oc1cc(O)c(-c2n[nH]cc2-c2ccncc2)cc1Cl [Example 175] | > 4.30 | – |
| Cc1nc2cc(-c3c[nH]nc3-c3cc(Cl)c(O)cc3O)ccc2s1 [Example 176] | > 4.30 | – |
| Oc1cc(O)c(-c2n[nH]cc2-c2cncnc2)cc1Cl [Example 177] | > 4.30 | – |
| COc1ccc(-c2c(C)n[nH]c2-c2cc(C(=O)NN)c(O)cc2O)cc1 [Example 178] | < 4.30 | – |
| COc1ccc(-c2c(-c3cc(Cl)c(O)cc3O)n[nH]c2Br)cc1 [Example 179, 4-[5-Bromo-4-(4-methoxy-phenyl)-1H-pyrazol-3-yl]-6-chloro-benzene-1,3-diol] | > 4.30 | – |
| CNC(=O)c1ccc(-c2c[nH]nc2-c2cc(Cl)c(O)cc2O)cc1 [Example 180] | > 4.30 | – |
| NC(=O)c1ccc(-c2c[nH]nc2-c2cc(Cl)c(O)cc2O)cc1 [Example 181] | > 4.30 | – |
| O=C(O)c1ccc(-c2c[nH]nc2-c2cc(Cl)c(O)cc2O)cc1 [Example 182] | > 4.30 | – |
| COc1ccc(-c2c(-c3ccc(CO)cc3O)n[nH]c2C)cc1 [Example 183] | < 4.30 | – |
| COC1=C2C[C@@H](C)C[C@H](OC)[C@H](O)[C@@H](C)/C=C(\C)[C@H](OC(N)=O)[C@@H](OC)/C=C\C=C(/C)C(=O)NC(=CC1=O)C2=O [Geldanamycin, geldanamycin, reference compound] | – | pIC50 [1]: 7.15; pIC50 [2]: 7.30; Cellular Protein (% DMSO controls) (HCT116 cells; (48 h)): 46.3%; Cellular Protein (% DMSO controls) (HCT116 cells; (time not given)): 75.3%; % increase in HSP70 (Normalised Europium Counts compared to DMSO controls) (HSP70 in HCT116 cells; (48 h)): 270%; % increase in HSP70 (Normalised Europium Counts compared to DMSO controls) (HSP70 in HCT116 cells; (time not given)): 169% |
